Measurements from ChEMBL document CHEMBL1201862, “PubChem BioAssay data set” (2004).
Where “and” joins values, the source holds several entries; their conditions need not be identical. Equal entries are not always repeated.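 All cell lines were grown in 96-well plates and treated with compound for 48 hours. GI50 = concentration required for 50% inhibition of growth.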 Calls of active or inactive are those of the source. Cut-off read from the data, not from the text of the source: active = GI50 up to about 1.1 µM and inactive = higher.

Key:
Assay in all cases: DTP human tumour cell line panel, 48 h
CAKI-1 = tested on: CAKI-1
SF-268 = tested on: SF-268
NCI-H23 = tested on: NCI-H23
HCC 2998 = tested on: HCC 2998
SF-539 = tested on: SF-539
PC-3 = tested on: PC-3
Malme-3M = tested on: Malme-3M
786-0 = tested on: 786-0
SK-MEL-2 = tested on: SK-MEL-2
EKVX = tested on: EKVX
LOX IMVI = tested on: LOX IMVI
MDA-MB-435 = tested on: MDA-MB-435
MDA-N = tested on: MDA-N
SN12C = tested on: SN12C
BT-549 = tested on: BT-549
OVCAR-8 = tested on: OVCAR-8
NCI-H460 = tested on: NCI-H460
SK-MEL-28 = tested on: SK-MEL-28
U-251 = tested on: U-251

Measured: GI50

COC(=O)C1=COC(C)C2CN3CCc4c([nH]c5cc(OC)c(OC)cc45)C3CC12 (stereo not drawn)
inactive: CAKI-1 > 100 µM | SF-268 > 100 µM and 65 µM | NCI-H23 70.5 µM and 37.6 µM | HCC 2998 58.2 µM and 36.1 µM | SF-539 > 100 µM and 66.7 µM | PC-3 64.9 µM and 37 µM | Malme-3M > 100 µM | 786-0 > 100 µM and 73.8 µM | SK-MEL-2 > 100 µM | EKVX 54.6 µM and 72.8 µM | LOX IMVI > 100 µM and 55.5 µM | MDA-MB-435 > 100 µM and 72.6 µM | MDA-N 55.7 µM | SN12C > 100 µM and 68.1 µM

CCCc1cn2c(/C=N/NC(=N)N)c(-c3cccc([N+](=O)[O-])c3)nc2s1
inactive: BT-549 1.57 µM | CAKI-1 2.01 µM | SF-268 2.25 µM | NCI-H23 1.78 µM | OVCAR-8 1.88 µM | SF-539 1.69 µM | PC-3 2.59 µM | Malme-3M 1.3 µM | 786-0 1.95 µM | SK-MEL-2 2.1 µM | LOX IMVI 2.07 µM | NCI-H460 2.22 µM | MDA-MB-435 1.76 µM | SK-MEL-28 1.43 µM | SN12C 1.21 µM | U-251 1.86 µM

CN1CCN(c2ccc3nc(C4=C(O)C(=O)c5c(nc(CO)n5C)C4=O)[nH]c3n2)CC1
inactive: BT-549 > 100 µM | CAKI-1 > 100 µM | SF-268 > 100 µM | NCI-H23 > 100 µM | OVCAR-8 > 100 µM | HCC 2998 > 100 µM | SF-539 20.9 µM | PC-3 > 100 µM | Malme-3M > 100 µM | 786-0 > 100 µM | SK-MEL-2 55.1 µM | EKVX > 100 µM | LOX IMVI > 100 µM | NCI-H460 > 100 µM | MDA-MB-435 > 100 µM | SK-MEL-28 > 100 µM | SN12C > 100 µM | U-251 76.2 µM

CC(C)(C)N1CC2(CCCCC2)C1=O
inactive: CAKI-1 > 100 µM | SF-268 99.1 µM | NCI-H23 > 100 µM | OVCAR-8 > 100 µM | HCC 2998 > 100 µM | SF-539 > 100 µM | Malme-3M > 100 µM | 786-0 > 100 µM | SK-MEL-2 > 100 µM | EKVX > 100 µM | LOX IMVI > 100 µM | NCI-H460 > 100 µM | SK-MEL-28 > 100 µM | SN12C > 100 µM | U-251 > 100 µM

Cc1cc([N+](=O)[O-])c(C)c2c1[nH]c1ccc(/C(CCC3CCCC3)=N\N)cc12
inactive: CAKI-1 > 10 µM | SF-268 18.9 µM | NCI-H23 14.7 µM | OVCAR-8 23.1 µM | HCC 2998 17 µM | SF-539 17.3 µM | Malme-3M 17.5 µM | 786-0 14.7 µM | SK-MEL-2 16.2 µM | EKVX 17.4 µM | LOX IMVI 15.4 µM | NCI-H460 18 µM | SK-MEL-28 16.9 µM | SN12C 14.8 µM

CCc1nc(Cl)c(Cl)c(Cl)n1
inactive: BT-549 > 100 µM | SF-268 > 100 µM | NCI-H23 > 100 µM | OVCAR-8 > 100 µM | HCC 2998 > 100 µM | SF-539 > 100 µM | PC-3 > 100 µM | Malme-3M > 100 µM | 786-0 > 100 µM | SK-MEL-2 > 100 µM | EKVX > 100 µM | LOX IMVI > 100 µM | NCI-H460 > 100 µM | MDA-MB-435 > 100 µM | SK-MEL-28 > 100 µM | SN12C > 100 µM | U-251 > 100 µM

CC(=O)SCCC(NC(=S)Nc1ccccc1)P(=O)(Oc1ccccc1)Oc1ccccc1 (stereo not drawn)
inactive: CAKI-1 > 100 µM | SF-268 > 100 µM | NCI-H23 > 100 µM | OVCAR-8 > 100 µM | HCC 2998 > 100 µM | SF-539 > 100 µM | Malme-3M > 100 µM | 786-0 > 100 µM | EKVX > 100 µM | LOX IMVI > 100 µM | NCI-H460 > 100 µM | MDA-MB-435 > 100 µM | SK-MEL-28 > 100 µM | MDA-N > 100 µM | SN12C > 100 µM | U-251 > 100 µM

CC1(C)CC[C@]2(C(=O)O)CC[C@]3(C)C(=CC[C@@H]4[C@@]5(C)C[C@H](O)[C@H](O)[C@@](C)(CO)C5=CC[C@]43C)[C@@H]2C1
inactive: CAKI-1 55 µM | SF-268 43.1 µM | NCI-H23 46.8 µM | OVCAR-8 37.2 µM | HCC 2998 35.4 µM | SF-539 > 100 µM | PC-3 67.9 µM | Malme-3M > 100 µM | 786-0 55.2 µM | SK-MEL-2 > 100 µM | EKVX 53.2 µM | LOX IMVI 71.3 µM | NCI-H460 21.3 µM | MDA-MB-435 > 100 µM | SK-MEL-28 > 100 µM | MDA-N > 100 µM | SN12C 51.9 µM | U-251 61.7 µM
